Where “and” joins values, the source holds several entries; their conditions need not be identical. Equal values may be shown once.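 Five concentrations, 48 hours, 96-well plates. GI50 marks 50% less growth. At the TGI there is no net growth.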 *1 amine or outer side, *2 acyl side, *3 side chain or, on linkers, in order; H or OH if unused. Where a SMILES comes first, the peptide text is derived from it. Bridges are numbered along the chain shown (N, C = ends). [ ]: non-standard residue; d: D form. ξ: configuration not given here. X4 = CCC(C)C(N[*:1])C(O)CC(=O)O[C@H](C(=O)C(C)C(=O)[*:2])C(C)C; NMeY = CN[C@@H](Cc1ccc(O)cc1)C(=O)O; ξNMeL = CNC(CC(C)C)C(=O)O; ξT = CC(O)C(N)C(=O)O
Experiments:
Test in all cases: growth of human tumour cells (NCI), 48 h
[1] = system: MDA-N
[2] = system: HCT-15 colon
[3] = system: OVCAR-8 ovarian
[4] = system: NCI-H226 lung
[5] = system: SK-MEL-28 melanoma
[6] = system: MALME-3M melanoma
[7] = system: T-47D breast
[8] = system: MDA-MB-435
[9] = system: DU-145 prostate
[10] = system: SF-268 CNS

| Compound | TGI [1] [µM] | TGI [2] | TGI [3] | TGI [4] [µM] | TGI [5] [µM] | TGI [6] [µM] | TGI [7] [µM] | TGI [8] [µM] | TGI [9] [µM] | TGI [10] | GI50 [10] [µM] | GI50 [7] [µM] | GI50 [2] [µM] | GI50 [3] [µM] | GI50 [8] [µM] | GI50 [4] [µM] | GI50 [9] [µM] | GI50 [5] [µM] | GI50 [6] [µM] |
| --- | --- | --- | --- | --- | --- | --- | --- | --- | --- | --- | --- | --- | --- | --- | --- | --- | --- | --- | --- |
| CC(C)n1c(=O)n(-c2ccccc2)n(C(C)(C)C)c1=O | > 100 | > 100 µM | > 100 µM | > 100 | > 100 | > 100 | – | – | – | – | – | – | – | – | – | – | – | – | – |
| COC(=O)C1(C(=O)OC)N=C(C)OC1C(C)C (stereo not given) | > 100 | > 100 µM | > 100 µM | > 100 | > 100 | – | > 100 | > 100 | > 100 | – | – | – | – | – | – | – | – | – | – |
| O=C(NNC(=S)Nc1ccccc1)c1csc(NC(=S)NC2CCCCC2)n1 | > 100 | > 100 µM | > 100 µM | – | – | > 100 | > 100 | > 100 | > 100 | > 100 µM | – | – | – | – | – | – | – | – | – |
| CCC(C)C1NC(=O)C(NC(=O)C(CC(C)C)N(C)C(=O)[C@@H]2CCCN2)C(C)OC(=O)[C@H](Cc2ccc(OC)cc2)N(C)C(=O)[C@@H]2CCCN2C(=O)[C@H](CC(C)C)NC(=O)C(C)C(=O)[C@H](C(C)C)OC(=O)CC1O (stereo not given in full) (H-P[ξNMeL][ξT][X4]LP[NMeY](Me); ester 3-C) | 0.0107 | 0.224 µM and 0.146 µM | 0.0243 µM and 0.0387 µM | – | 0.00179 | 0.00847 | – | 0.0032 | – | 0.00314 µM and 0.0195 µM | – | – | – | – | – | – | – | – | – |
| COC(OC)C(O)C1OC=CC1n1cnc2c(N)ncnc21 (stereo not given) | > 100 | > 100 µM | – | > 100 | > 100 | – | > 100 | > 100 | > 100 | > 100 µM | – | – | – | – | – | – | – | – | – |
| Cc1ccc(O)c(C2=NNC(c3cccc(Br)c3)C2)c1 (stereo not given) | > 100 | 35.1 µM | > 100 µM | > 100 | – | > 100 | > 100 | 46.8 | > 100 | > 100 µM | – | – | – | – | – | – | – | – | – |
| N#CCCN(CCCN(C(=O)Nc1ccccc1)c1ccccc1)C(=O)Nc1ccccc1 | > 100 | > 100 µM | > 100 µM | > 100 | > 100 | > 100 | > 100 | > 100 | > 100 | – | – | – | – | – | – | – | – | – | – |
| NC(=O)CC(Nc1ncc2c(n1)-c1ccccc1OC2)C(=O)O (stereo not given) | > 100 | > 100 µM | > 100 µM | > 100 | > 100 | > 100 | – | > 100 | > 100 | > 100 µM | – | – | – | – | – | – | – | – | – |
| COc1cccc(-c2nc3sccn3c2-c2ccnc(NCCNC(=O)Nc3cccc(C(F)(F)F)c3)n2)c1 | – | 16.4 µM | 9.79 µM | 68.6 | 26.2 | 26.8 | 13.8 | 12.3 | 95.5 | 43.4 µM | 4.59 | 3.77 | 3.05 | 3.28 | 2.95 | 4.58 | 5.13 | 5.36 | 3.86 |
| Cc1cc(S(=O)(=O)Nc2nc(N)nc(N3N=CCC3C)n2)c(S)cc1Cl (stereo not given) | > 10 | > 10 µM | > 10 µM | > 10 | > 10 | > 10 | > 10 | – | > 10 | > 10 µM | – | – | – | – | – | – | – | – | – |
| CCOC(=O)C(Cc1ccccc1)(Cc1ccc(O)cn1)NC(=O)c1ccccc1 (stereo not given) | 23 | > 100 µM | > 100 µM | > 100 | > 100 | 48.8 | – | 30.1 | > 100 | 61.7 µM | – | – | – | – | – | – | – | – | – |
| CC[N+](C)(CC)CCN1C(=O)c2ccccc2S1(=O)=O | – | > 100 µM | > 100 µM | > 100 | > 100 | > 100 | > 100 | > 100 | > 100 | > 100 µM | – | – | – | – | – | – | – | – | – |
| NC(CCCCNC(=O)OCc1ccccc1)C(=O)NC(CCCCNC(=O)OCc1ccccc1)C(=O)ON1C(=O)CCC1=O (stereo not given) | > 100 | > 100 µM | > 100 µM | > 100 | > 100 | > 100 | > 100 | – | – | – | – | – | – | – | – | – | – | – | – |
| NC(=O)COc1ccccc1 | – | > 100 µM | > 100 µM | > 100 | > 100 | > 100 | – | – | – | > 100 µM | – | – | – | – | – | – | – | – | – |
| Nc1nc2c(ncn2C2C=CC(CO)O2)c(=O)[nH]1 (stereo not given) | > 100 | > 100 µM | > 100 µM | > 100 | > 100 | > 100 | > 100 | > 100 | > 100 | – | – | – | – | – | – | – | – | – | – |
| CCOC(=O)c1sc2c(c1OC(=O)c1ccccc1)c(=O)n(-c1ccccc1)c(=S)n2-c1ccccc1 | – | > 100 µM | > 100 µM | > 100 | > 100 | 54.5 | > 100 | 51.7 | > 100 | > 100 µM | – | – | – | – | – | – | – | – | – |
